Results published in patent publication US20050048105A1, “Protease inhibitor compositions for prevention and treatment of skin conditions” (priority 2003, published 2005).
Read-outs that look alike come from different tables or passages of the source.

Tests used:
[1] = tested on: protease; assay: Protease inhibition activity of inhibitor solutions and lotions, fresh and after storage; format: biochemical; conditions: for initial protease inhibition activity: freshly prepared preparation; for decrease of inhibitory activity after storage of solution: one month at room temperature, vs fresh solution
Protocol: (§1) The inventor selected glycine soja and DPHP by testing numerous potential inhibitors in vitro to assess their activity against protease enzymes. A protease enzyme present in feces or urine, such as trypsin, chymotrypsin, or elastase, was placed in contact with a substrate (crosslinked albumin, sulfaniloazo-albumin and gelatin). Separately, the protease (trypsin, chymotrypsin or elastase) was incubated with a protease inhibitor and then this combination was placed in contact with the substrate. The substrate-protease or substrate-protease-protease inhibitor combination was then left to incubate.
(§2) At a defined time, the incubation was stopped by the addition of NaOH. Color was developed and read at OD 450. The intensity of the color developed was directly proportional to the amount of substrate digested by the protease.
Using the above methods, two protease inhibitors mentioned by the prior art were tested. […] However, they were left for one month and then tested for activity. After one month at room temperature, the activity of the stabilized AEBSF solution was decreased by 42%.

[2] = target: T1, trypsin (Bos taurus, UniProt P00760); assay: Back digest of albumin/gelatin dye substrate by trypsin (FIGS. 2 and 4); format: biochemical
T1 construct: gene PRSS1
T1 sequence (P00760 24-246): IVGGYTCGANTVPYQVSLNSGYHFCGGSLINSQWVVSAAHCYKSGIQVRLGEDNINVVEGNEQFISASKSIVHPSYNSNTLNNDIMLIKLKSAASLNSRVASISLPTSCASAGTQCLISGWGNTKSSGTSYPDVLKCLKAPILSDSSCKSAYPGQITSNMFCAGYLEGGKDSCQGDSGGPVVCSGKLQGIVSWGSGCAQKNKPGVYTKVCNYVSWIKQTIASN
Protocol: as §1, §2
A back digest was performed with a spectrally active protease substrate, trypsin, and either DPHP or glycine soja. Trypsin was incubated with either DPHP or glycine soja, and for the control, neither DPHP nor glycine soja was used. The trypsin or trypsin+either DPHP or glycine soja was then placed in contact with a substrate, the results of which are shown in FIGS. 3 and 4.
(§3) The substrate used was a crosslinked albumin, sulfaniloazo-albumin and gelatin at a slightly acidic pH. […] This color development can be measured spectrophotometrically at OD 450 and the OD value is proportional to enzymatic activity. […] The OD 450 reading is directly proportional to the enzyme activity (i.e. the higher the value, the higher the enzyme activity).
(§4) A back digest was conducted when particulate suspensions were used as either enzyme or enzyme inhibitor or when lotions were being tested, because the particulate interferes with the OD readings. […] Color development was read at OD 450. […]
After an initial digest, the supernatant was decanted, and an excess of trypsin was added for further digestion of the substrate. After this final digest, supernatant optical density (OD) was read at 450 nm. […]

[3] = tested on: elastase; conditions: studies by the manufacturer (Seppic); cited from earlier work
[4] = target: chymotrypsin (Bos taurus, UniProt P00766); assay: In vitro protease substrate digest with chymotrypsin; format: biochemical
Protocol: as §1, §2

[5] = tested on: elastase; assay: Back digest of albumin/gelatin dye substrate by elastase (FIG. 4); format: biochemical
Protocol: as §1
At a defined time, the incubation was stopped by the addition of NaOH. Color was developed and read at OD 450. […]
as §3, §4

[6] = shown by the manufacturer; cited from earlier work
[7] = DPHP material itself, back digest, FIG. 4
[8] = listed as dipalmitoyl hydroxyproline

SMILES	initial protease inhibition activity [1]	decrease of inhibitory activity after storage of solution [1]	inhibition of trypsin (in words) [2]	change in trypsin activity [2, 7] [%]	inhibition of trypsin (in words) [2, 8]	inhibition of elastase (manufacturer) [3]	inhibition of chymotrypsin (in words) [4]	inhibition of chymotrypsin (in words) [4, 8]	inhibition of elastase (in words) [5]	change in elastase activity [5, 7] [%]	inhibition of free radicals (manufacturer) [6]
N=C(N)c1ccc(OCCCCCCOc2ccc(C(=N)N)cc2)cc1.O=S(=O)(O)CCO.O=S(=O)(O)CCO [Elestab, hexamidine diisethionate]	very high protease inhibition activity	about 37%	–	–	–	–	–	–	–	–	–
CCCCCCCCCCCCCCCC(=O)O[C@@H]1C[C@@H](C(=O)O)N(C(=O)CCCCCCCCCCCCCCC)C1 [DPHP, dipalmitoyl hydroxyproline]	–	–	does inhibit	−33	potent inhibitors	potent inhibitor of elastase	does inhibit	potent inhibitors	does inhibit	−22	potent inhibitor of free radicals
Cl.NCCc1ccc(S(=O)(=O)F)cc1 [AEBSF, 4-(2-aminoethyl)-benzenesulfonylfluoride hydrochloride]	very high protease inhibition activity	42%	–	–	–	–	–	–	–	–	–
